Data published in patent US12291515B2, “Pyrrolidine derivative and use thereof” (Rushi Biotech (Hangzhou) Co., Ltd, priority 2021, dated 2025).

Key:
Type in all cases: cell-based
[1] = system: Human lung adenocarcinoma cell A549; assay: CCK-8 cell proliferation assay, A549; details: A549 cells, CCK-8, 24 hrs with drug, OD 450 nm
Experimental: (§1) The effect of samples on the proliferation of human tumor cells in vitro was determined by CCK-8 cell proliferation assay.
(§2) The cells were assayed through a method including the following steps:
(§3) 1) The cells were digested, counted, and prepared into a cell suspension in a corresponding culture medium (Table 1) (5×10^4 cells/ml for CFPAC-1 and RPMI 8226, and 3.5×10^4 cells/ml for rest cells). The cell suspension was added to each well of a 96-well plate in 100 μl well.
(§4) 2) Then the 96-well plate was incubated for 24 hrs in an incubator at 37° C. and 5% CO2.
(§5) 3) The drug was diluted with the culture medium to the required working concentration. 100 μl of the corresponding drug containing medium was added to each well. A negative control group (added with drug-free culture medium) was also set.
(§6) 4) Then the 96-well plate was incubated for 24 hrs in an incubator at 37° C. and 5% CO2.
(§7) 5) The 96-well plate was stained with CCK-8, and The OD value was determined at λ=450 nm.
(§8) a) 10 μl of CCK-8 was added to each well, and incubated in the incubator for another 2-3 hrs.
(§9) b) The content was mixed uniformly by shaking gently on a shaker for 10 min, and the bubbles in the 96-well plate were removed.
(§10) 6) The inhibition rate in each group was calculated.

[2] = system: Human hepatoma cell HepG2; assay: CCK-8 cell proliferation assay, HepG2; details: HepG2 cells, CCK-8, 24 hrs with drug, OD 450 nm
Experimental: as §1, §2, §3, §4, §5, §6, §7, §8, §9, §10

[3] = system: Human esophageal cancer cell TE-1; assay: CCK-8 cell proliferation assay, TE-1; details: TE-1 cells, CCK-8, 24 hrs with drug, OD 450 nm
Experimental: as §1, §2, §3, §4, §5, §6, §7, §8, §9, §10

[4] = system: Human gastric cancer cell MKN45; assay: CCK-8 cell proliferation assay, MKN-45; details: MKN-45 cells, CCK-8, 24 hrs with drug, OD 450 nm
Experimental: as §1, §2, §3, §4, §5, §6, §7, §8, §9, §10

[5] = system: Human colon cancer cell HCT-116; assay: CCK-8 cell proliferation assay, HCT116; details: HCT116 cells, CCK-8, 24 hrs with drug, OD 450 nm
Experimental: as §1, §2, §3, §4, §5, §6, §7, §8, §9, §10

[6] = system: Human multiple myeloma cell RPMI 8226; assay: CCK-8 cell proliferation assay, RPMI8226; details: RPMI8226 cells, CCK-8, 24 hrs with drug, OD 450 nm
Experimental: as §1, §2, §3, §4, §5, §6, §7, §8, §9, §10

[7] = system: Human pancreatic cancer cell CFPAC-1; assay: CCK-8 cell proliferation assay, CFPAC-1; details: CFPAC-1 cells, CCK-8, 24 hrs with drug, OD 450 nm
Experimental: as §1, §2, §3, §4, §5, §6, §7, §8, §9, §10

IC50 [1] [nM]	IC50 [2] [nM]	IC50 [3] [nM]	IC50 [4] [nM]	IC50 [5] [nM]	IC50 [6] [nM]	IC50 [7] [nM]	SMILES
47	53	49	42	66	28	35	O=C(NCCCCCCC1CCN(C(=O)c2ccc[nH]2)C1)Nc1cc(F)nc(F)c1 (stereo not drawn) [BSS-TP120]
69	72	74	32	83	52	51	O=C(NCCCCCCC1CCN(C(=O)c2cc3ccccc3[nH]2)C1)Nc1ccncc1 (stereo not drawn) [BSS-TP121, 1-(6(1-(2-indolylformyl)pyrrolidin-3-yl)hexyl)-2-(4-pyridinyl)urea]
67	71	63	61	69	26	49	O=C(NCCCCCCC1CCN(C(=O)c2cc3ccccc3o2)C1)Nc1ccncc1 (stereo not drawn) [BSS-TP122, 1-(6-(1-(2-benzofurylformyl)pyrrolidin-3-yl)hexyl)-2-(4-pyridinyl)urea]
63	59	65	69	58	32	59	O=C(NCCCCCCC1CCN(C(=O)c2cc3ccccc3[nH]2)C1)Nc1ccnc(F)c1 (stereo not drawn) [BSS-TP123]
56	63	82	64	73	39	42	O=C(NCCCCCCC1CCN(C(=O)c2cc3ccccc3o2)C1)Nc1ccnc(F)c1 (stereo not drawn) [BSS-TP124]
46	52	43	57	49	28	47	COc1cccc(OC)c1C(=O)N1CCC(CCCCCCNC(=O)Nc2cc(F)nc(F)c2)C1 (stereo not drawn) [BSS-TP125]
55	92	88	32	63	33	53	COc1cccc(OC)c1C(=O)N1CCC(CCCCCCCNC(=O)Nc2ccncc2)C1 (stereo not drawn) [BSS-TP126, 1-(7-(1-(2,6-dimethoxybenzoyl)pyrrolidin-3-yl)heptyl)-2-(4-pyridinyl) urea]
75	102	135	109	76	34	58	COc1cccc(OC)c1C(=O)N1CCC(CCCCNC(=O)Nc2ccncc2)C1 (stereo not drawn) [BSS-TP127, 1-(4-(1-(2,6-dimethoxybenzoyl)pyrrolidin-3-yl)butyl)-2-(4-pyridinyl) urea]
68	110	124	51	97	36	53	O=C(NCCCCCCCC1CCN(C(=O)c2ccco2)C1)Nc1ccncc1 (stereo not drawn) [BSS-TP128, 1-(7-(1-(furoyl)pyrrolidin-3-yl)heptyl)-2-(4-pyridinyl)urea]
73	93	96	49	72	23	28	O=C(NCCCCCCCC1CCN(C(=O)c2ccc[nH]2)C1)Nc1ccncc1 (stereo not drawn) [BSS-TP129, 1-(7-(1-(2-pyrrolylformyl)pyrrolidin-3-yl)heptyl)-2-(4-pyridinyl)urea]
56	55	61	73	46	38	43	COc1cccc(OC)c1C(=O)N1CCC(CCCCCCCNC(=O)Nc2ccnc(F)c2)C1 (stereo not drawn) [BSS-TP130]
43	67	69	47	75	29	36	O=C(NCCCCCCCC1CCN(C(=O)c2ccccc2)C1)Nc1ccncc1 (stereo not drawn) [BSS-TP131]
51	61	77	39	65	34	30	O=C(NCCCCCCCC1CCN(C(=O)c2ccccc2)C1)Nc1ccnc(F)c1 (stereo not drawn) [BSS-TP132]
37	99	112	39	92	20	37	O=C(/C=C/c1cccnc1)NCCCCC1CCN(C(=O)c2ccccc2)CC1 [FK866, reference compound]

More lines, now with the values behind:

SMILES	IC50 [1] [nM]	IC50 [2] [nM]	IC50 [3] [nM]	IC50 [4] [nM]	IC50 [5] [nM]	IC50 [6] [nM]	IC50 [7] [nM]
O=C(NCCCCCCC1CCN(C(=O)c2cccs2)C1)Nc1cccnc1 (stereo not drawn) [BSS-TP110, 1-(6-(1-(2-thienylformyl)pyrrolidin-3-yl)hexyl)-2-(3-pyridinyl)urea]	44	116	109	75	73	56	52
O=C(NCCCCCCC1CCN(C(=O)c2ccco2)C1)Nc1cccnc1 (stereo not drawn) [BSS-TP111, 1-(6-(1-(furoyl)pyrrolidin-3-yl)hexyl)-2-(3-pyridinyl)urea]	61	87	133	77	62	53	42
O=C(NCCCCCCC1CCN(C(=O)c2ccc[nH]2)C1)Nc1cccnc1 (stereo not drawn) [BSS-TP112, 1-(6-(1-(2-pyrrolylformyl)pyrrolidin-3-yl)hexyl)-2-(3-pyridinyl)urea]	52	81	93	59	78	42	36
O=C(NCCCCCCC1CCN(C(=O)c2ccccc2)C1)Nc1ccnc(F)c1 (stereo not drawn) [BSS-TP113]	33	83	77	42	41	38	38
O=C(NCCCCCCC1CCN(C(=O)c2ccc[nH]2)C1)Nc1ccnc(F)c1 (stereo not drawn) [BSS-TP114]	49	72	76	51	85	39	33
O=C(NCCCCCCC1CCN(C(=O)c2ccco2)C1)Nc1ccnc(F)c1 (stereo not drawn) [BSS-TP115]	51	79	88	40	68	46	39
O=C(NCCCCCCC1CCN(C(=O)c2cccs2)C1)Nc1ccnc(F)c1 (stereo not drawn) [BSS-TP116]	39	81	69	79	83	31	47
O=C(NCCCCCCC1CCN(C(=O)c2ccccc2)C1)Nc1cc(F)nc(F)c1 (stereo not drawn) [BSS-TP117]	58	49	47	45	53	36	37
O=C(NCCCCCCC1CCN(C(=O)c2ccco2)C1)Nc1cc(F)nc(F)c1 (stereo not drawn) [BSS-TP118]	59	64	81	62	61	24	42
O=C(NCCCCCCC1CCN(C(=O)c2cccs2)C1)Nc1cc(F)nc(F)c1 (stereo not drawn) [BSS-TP119]	72	83	87	61	50	43	38
